The results in this text go back to PubChem BioAssay (NCI).

Among the test systems are OVCAR-8 ovarian; SK-OV-3 ovarian; HL-60(TB) leukemia; MCF7 breast; SN12C renal; MDA-MB-435; 786-0 renal; NCI-H226 lung; SK-MEL-2 melanoma; RPMI-8226 leukemia; SF-539 CNS; RXF 393 renal; CCRF-CEM leukemia; MALME-3M melanoma.
Test in all cases: NCI anticancer screen, dose series, 48 h

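Step 1: Grow cells in 96-well plates. Step 2: Expose to compound for 48 hours at 5 concentrations. Step 3: Interpolate endpoints linearly; if unreached, use highest concentration. GI50: concentration for 50% inhibition of growth. The concentration for full growth arrest is given as TGI.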

As to `CC(C)=Cc1cc(C)c2c3c(c(O)c(O)c(C)c13)C(C)=CC2=O`, the TGI is above 100 µM in the assay on OVCAR-8 ovarian; 89 µM in the assay on SK-OV-3 ovarian; 67 µM in the assay with HL-60(TB) leukemia; 68.7 µM with MCF7 breast; above 100 µM in the assay on SN12C renal; 55.1 µM in the assay with MDA-MB-435. Further, the TGI is 64.8 µM with 786-0 renal; 50.9 µM in the assay with NCI-H226 lung; 44.2 µM with SK-MEL-2 melanoma; 15 µM with RPMI-8226 leukemia; 71.6 µM in the assay on SF-539 CNS.

With `COc1ccc2c(c1)c1c(n2CCN2CCOCC2)-c2cccc(OC)c2CC1`, the TGI in the assay on OVCAR-8 ovarian is above 100 µM; in the assay on SK-OV-3 ovarian it was above 100 µM; in the assay on MCF7 breast it was 77.3 µM; with SN12C renal it was above 100 µM; in the assay on MDA-MB-435, above 100 µM; in the assay with 786-0 renal, above 100 µM. For the same compound, the TGI is 52.9 µM in the assay on NCI-H226 lung; above 100 µM in the assay with SK-MEL-2 melanoma; 68.1 µM in the assay on RPMI-8226 leukemia; above 100 µM in the assay with RXF 393 renal; 56.8 µM in the assay on CCRF-CEM leukemia; above 100 µM in the assay with SF-539 CNS. Besides, the TGI with MALME-3M melanoma came to 66.3 µM.

In the case of `O=C(Nn1c(-c2cccs2)nc2ccc(I)cc2c1=O)c1ccccc1`, the TGI was above 100 µM in the assay on OVCAR-8 ovarian; 99.7 µM in the assay with HL-60(TB) leukemia; above 100 µM with MCF7 breast; above 100 µM in the assay on SN12C renal; 45.7 µM in the assay on MDA-MB-435; above 100 µM in the assay on 786-0 renal. The TGI was above 100 µM with NCI-H226 lung; 69.4 µM in the assay with SK-MEL-2 melanoma; 58.1 µM with RPMI-8226 leukemia; above 100 µM in the assay with RXF 393 renal; above 100 µM in the assay with CCRF-CEM leukemia; above 100 µM with SF-539 CNS. The GI50 was 33.7 µM in the assay on HL-60(TB) leukemia; 23.2 µM in the assay with MCF7 breast; 24 µM in the assay on SK-MEL-2 melanoma; 22.8 µM in the assay with RPMI-8226 leukemia; 38.5 µM in the assay on CCRF-CEM leukemia; 30.1 µM in the assay on SF-539 CNS.

Take `CCC(=O)NI1OC(=O)c2ccccc21`: the TGI in the assay with OVCAR-8 ovarian, in the assay on SK-OV-3 ovarian, with HL-60(TB) leukemia, in the assay with MCF7 breast, in the assay with SN12C renal and with MDA-MB-435 was above 100 µM each time. Besides, the TGI with 786-0 renal, in the assay on NCI-H226 lung, with SK-MEL-2 melanoma, in the assay with RPMI-8226 leukemia, in the assay on RXF 393 renal and with CCRF-CEM leukemia was above 100 µM throughout. This compound registered a TGI in the assay with SF-539 CNS above 100 µM.

Regarding `CC(C)(C)c1cc2c(c(C(C)(C)C)c1O)CC(=O)O2`, the TGI was above 100 µM with OVCAR-8 ovarian; above 100 µM in the assay on SK-OV-3 ovarian; 86.8 µM with HL-60(TB) leukemia; above 100 µM with MCF7 breast; above 100 µM in the assay on SN12C renal; 66 µM in the assay with MDA-MB-435. Further, the TGI came out at 94.1 µM in the assay on 786-0 renal; 74.7 µM in the assay on NCI-H226 lung; 47.7 µM in the assay on SK-MEL-2 melanoma; 65 µM with RPMI-8226 leukemia; 54.5 µM with RXF 393 renal; 73.5 µM with CCRF-CEM leukemia. Further, in the assay on SF-539 CNS, the TGI worked out at 62.5 µM.

For the compound `COC(=O)CCC1=NCC(C)(C)O1`, the TGI in the assay with OVCAR-8 ovarian, with SK-OV-3 ovarian, with MCF7 breast, in the assay on SN12C renal, in the assay on MDA-MB-435 and in the assay with 786-0 renal was above 10 µM throughout. In addition, the TGI with NCI-H226 lung, in the assay on SK-MEL-2 melanoma, in the assay on RPMI-8226 leukemia, in the assay with RXF 393 renal, in the assay on CCRF-CEM leukemia and with SF-539 CNS was above 10 µM in each case. The compound further displayed a TGI in the assay on MALME-3M melanoma above 10 µM.

`O=C1C2=Cc3ccccc3OC2(O)Oc2ccccc21` (configuration not stated): the TGI in the assay on OVCAR-8 ovarian, in the assay on SK-OV-3 ovarian, in the assay with MCF7 breast, with SN12C renal, with MDA-MB-435 and with 786-0 renal was above 100 µM throughout. The TGI with NCI-H226 lung, in the assay on SK-MEL-2 melanoma, in the assay on RPMI-8226 leukemia, in the assay with RXF 393 renal, in the assay with CCRF-CEM leukemia and in the assay with SF-539 CNS was above 100 µM each time. In the assay with MALME-3M melanoma, this compound yielded a TGI above 100 µM.

For the compound `CN1CC(c2ccccc2)C(O)(C2(c3ccccc3)CN(C)CC(c3ccccc3)C2=O)C(c2ccccc2)C1` (configuration not stated), the TGI in the assay on OVCAR-8 ovarian, in the assay with HL-60(TB) leukemia, in the assay on MCF7 breast, with SN12C renal, in the assay on MDA-MB-435 and in the assay on 786-0 renal was above 100 µM each time. Also, the TGI in the assay with NCI-H226 lung, in the assay with SK-MEL-2 melanoma, with RPMI-8226 leukemia and in the assay with SF-539 CNS was above 100 µM in each case.

`C[C@@H](CC(=O)O)OC1OC(COC(=O)C(C)(C)C)C(OC(=O)C(C)(C)C)C(OC(=O)C(C)(C)C)C1OC(=O)C(C)(C)C` (some centres not stated): the TGI was above 100 µM in the assay on OVCAR-8 ovarian; above 100 µM with SK-OV-3 ovarian; 46.3 µM in the assay with HL-60(TB) leukemia; above 100 µM in the assay on MCF7 breast; above 100 µM in the assay on SN12C renal; above 100 µM in the assay with MDA-MB-435. For the same compound, the TGI in the assay on 786-0 renal is above 100 µM; in the assay with NCI-H226 lung, above 100 µM; in the assay with SK-MEL-2 melanoma, above 100 µM; in the assay on RPMI-8226 leukemia, 71.8 µM; with RXF 393 renal, above 100 µM; in the assay with CCRF-CEM leukemia, 55.9 µM. The compound also yielded a TGI in the assay on SF-539 CNS above 100 µM.
